Source: BindingDB's records for PubMed 36250680 (University of Pisa, 2022)

Target: Macrophage metalloelastase (Homo sapiens, UniProt P39900)
Assay: Inhibition of MMP12 (unknown origin)

Macrophage metalloelastase, sequence (P39900 whole entry): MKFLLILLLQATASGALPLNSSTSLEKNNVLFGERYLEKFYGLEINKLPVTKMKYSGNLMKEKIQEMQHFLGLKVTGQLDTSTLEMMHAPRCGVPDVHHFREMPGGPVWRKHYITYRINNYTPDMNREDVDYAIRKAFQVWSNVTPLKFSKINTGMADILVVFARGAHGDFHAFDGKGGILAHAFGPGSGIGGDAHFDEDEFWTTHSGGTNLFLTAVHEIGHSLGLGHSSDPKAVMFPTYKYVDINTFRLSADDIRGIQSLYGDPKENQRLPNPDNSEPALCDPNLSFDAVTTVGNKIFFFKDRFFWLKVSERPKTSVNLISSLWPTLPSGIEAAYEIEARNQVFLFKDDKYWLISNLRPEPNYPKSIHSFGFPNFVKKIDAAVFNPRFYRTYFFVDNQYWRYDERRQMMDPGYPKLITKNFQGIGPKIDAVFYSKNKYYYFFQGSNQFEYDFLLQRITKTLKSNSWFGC

`Oc1cccc(O)c1O` was tested, and the Ki was 2030 nM.
